Series [1] concerns the target T1, Sodium-dependent noradrenaline transporter (Homo sapiens, UniProt P23975). Description: Displacement of […] from NET (unknown origin) expressed in HEK cell membrane incubated for 2 hrs by liquid scintillation counter analysis.
For series [2], the target named is Glutamate [NMDA] receptor. Description: Displacement of […] from NMDA receptor (unknown origin) expressed in HEK cell membrane incubated for 2 hrs by liquid scintillation counter analysis. Background: Displacement assays read how much labelled ligand stays bound in the presence of the test substance.
The target in series [3] is Sigma intracellular receptor 2 (Homo sapiens, UniProt Q5BJF2). Kind of series: Displacement of […] from sigma-2 receptor (unknown origin) expressed in HEK cell membrane incubated for 2 hrs by liquid scintillation counter analysis.
Sigma intracellular receptor 2, sequence (Q5BJF2 whole entry): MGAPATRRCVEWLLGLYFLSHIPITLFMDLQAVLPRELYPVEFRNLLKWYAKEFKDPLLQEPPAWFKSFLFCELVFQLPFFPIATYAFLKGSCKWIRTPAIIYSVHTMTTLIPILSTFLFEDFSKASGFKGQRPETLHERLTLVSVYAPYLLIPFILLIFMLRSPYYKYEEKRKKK
In series [4] the target is Sigma non-opioid intracellular receptor 1 (Homo sapiens, UniProt Q99720). Description: Displacement of […] from sigma-1 receptor (unknown origin) expressed in HEK cell membrane incubated for 2 hrs by liquid scintillation counter analysis.
Sigma non-opioid intracellular receptor 1, sequence (Q99720 whole entry): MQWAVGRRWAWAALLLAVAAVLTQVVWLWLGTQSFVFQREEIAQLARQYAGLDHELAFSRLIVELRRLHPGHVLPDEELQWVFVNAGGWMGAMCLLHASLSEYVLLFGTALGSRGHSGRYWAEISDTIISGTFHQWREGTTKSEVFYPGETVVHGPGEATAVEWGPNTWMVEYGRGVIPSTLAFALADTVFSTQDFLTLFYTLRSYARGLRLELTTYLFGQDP
The nature of series [5]: Aqueous solubility of compound in universal buffer at pH 7.4 at 100 uM incubated for 1.5 hrs under shaking condition by LC-MS/MS analysis. It counts as physicochemical.
Series [6] is described as follows: Aqueous solubility of compound in universal buffer at pH 3 at 100 uM incubated for 1.5 hrs under shaking condition by LC-MS/MS analysis. It counts as physicochemical.
In series [7] the target is T1, Sodium-dependent noradrenaline transporter. Kind of series: Inhibition of human NET expressed in human HEK293 cells assessed as inhibition of substrate transport measured after 1 hr by flourescence based plate reader assay. It counts as cell-based.
For the next series, the target named is hERG (KCNH2) (Homo sapiens, UniProt Q12809). Description: Inhibition of human ERG at 10 uM measured after 15 mins by plate reader method relative to control. It counts as toxicity.
hERG (KCNH2), sequence (Q12809 whole entry): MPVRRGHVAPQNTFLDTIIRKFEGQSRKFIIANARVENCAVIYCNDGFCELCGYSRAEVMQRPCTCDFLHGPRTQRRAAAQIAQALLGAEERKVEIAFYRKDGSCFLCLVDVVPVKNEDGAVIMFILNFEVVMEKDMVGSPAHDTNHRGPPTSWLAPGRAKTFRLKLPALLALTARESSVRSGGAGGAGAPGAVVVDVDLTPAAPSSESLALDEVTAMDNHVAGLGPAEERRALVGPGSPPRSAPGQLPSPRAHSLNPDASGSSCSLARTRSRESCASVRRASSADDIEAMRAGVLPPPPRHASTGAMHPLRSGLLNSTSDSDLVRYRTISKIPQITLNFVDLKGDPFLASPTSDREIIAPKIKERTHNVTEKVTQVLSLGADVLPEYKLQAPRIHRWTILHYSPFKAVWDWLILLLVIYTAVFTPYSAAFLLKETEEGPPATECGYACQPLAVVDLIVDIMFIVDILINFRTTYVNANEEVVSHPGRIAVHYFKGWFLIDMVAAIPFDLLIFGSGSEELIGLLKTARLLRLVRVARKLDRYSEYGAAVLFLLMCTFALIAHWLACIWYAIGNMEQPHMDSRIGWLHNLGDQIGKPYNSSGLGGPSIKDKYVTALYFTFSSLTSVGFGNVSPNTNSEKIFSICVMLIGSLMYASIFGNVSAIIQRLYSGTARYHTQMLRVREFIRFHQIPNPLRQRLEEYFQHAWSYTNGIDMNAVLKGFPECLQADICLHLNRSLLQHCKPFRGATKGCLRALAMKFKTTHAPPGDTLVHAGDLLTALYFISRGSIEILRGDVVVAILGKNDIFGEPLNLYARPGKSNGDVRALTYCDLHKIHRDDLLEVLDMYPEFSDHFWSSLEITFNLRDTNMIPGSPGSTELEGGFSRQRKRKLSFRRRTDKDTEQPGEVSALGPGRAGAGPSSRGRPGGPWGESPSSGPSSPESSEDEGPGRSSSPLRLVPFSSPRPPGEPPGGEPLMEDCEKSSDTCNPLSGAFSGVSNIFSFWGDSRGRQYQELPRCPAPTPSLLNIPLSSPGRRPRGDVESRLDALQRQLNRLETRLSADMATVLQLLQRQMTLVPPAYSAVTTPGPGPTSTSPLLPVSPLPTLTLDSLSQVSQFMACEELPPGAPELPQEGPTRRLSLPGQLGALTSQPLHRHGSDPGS
A short description of series [8]: Stability in human liver microsomes assessed as half life at 10 uM measured upto 120 mins by LC-MS/MS analysis. It counts as ADME, Microsome. (Liver microsomes are vesicles of endoplasmic reticulum, rich in cytochrome P450 enzymes.)
Series [9] is described as follows: Cmax in Sprague-Dawley rat plasma at 2.5 mg/kg, po measured after 24 hrs by LC-MS/MS analysis. It counts as ADME, organism-based. More on the design: route oral, dose 2.5 mg/kg, time 24 hrs.
Series [10] can be described thus: Cmax in Sprague-Dawley rat brain at 2.5 mg/kg, po measured after 24 hrs by LC-MS/MS analysis. It counts as ADME, organism-based. More on the design: route oral, time 24 hrs, dose 2.5 mg/kg.
Series [11] is described as follows: AUC in Sprague-Dawley rat plasma at 2.5 mg/kg, po measured after 24 hrs by LC-MS/MS analysis. Further details: route oral, time 24 hrs, dose 2.5 mg/kg. It counts as ADME, organism-based.
Series [12] in a line: AUC in Sprague-Dawley rat brain at 2.5 mg/kg, po measured after 24 hrs by LC-MS/MS analysis. It counts as ADME, organism-based. More on the design: route oral, time 24 hrs, dose 2.5 mg/kg.
Series [13] in a line: Protein binding in Sprague-Dawley rat plasma assessed as unbound fraction at 20 uM by NMR analysis. It counts as ADME, cell-free.
Series [14] is described as follows: Protein binding in Sprague-Dawley rat brain plasma assessed as unbound fraction at 5 uM measured after 4 hrs by LC-MS analysis. It counts as ADME, tissue-based.
Series [15] can be described thus: Unbound brain-to-plasma concentration ratio in Sprague-Dawley rat. The settings on record: read-out: K(p,uu,brain). It counts as ADME, cell-free.
Series [16] in a line: Volume of distribution in Sprague-Dawley rat at 2.5 mg/kg, po measured after 24 hrs by LC-MS/MS analysis. It counts as ADME, organism-based. The settings on record: in vivo.
Series [17] is described as follows: Clearance in Sprague-Dawley rat plasma at 2.5 mg/kg, po measured after 24 hrs by LC-MS/MS analysis. It counts as ADME, organism-based.
The nature of series [18]: Half life in Sprague-Dawley rat plasma at 2.5 mg/kg, po measured after 24 hrs by LC-MS/MS analysis. It counts as ADME, organism-based.
A short description of series [19]: Half life in Sprague-Dawley rat brain at 2.5 mg/kg, po measured after 24 hrs by LC-MS/MS analysis. It counts as ADME, organism-based.
Series [20] is described as follows: in vitro. The settings on record: human, liver microsomes.
Series [21] can be described thus: in vitro. The settings on record: dog, MDCK-MDR1.
Description: Apparent permeability in dog MDCK-MDR1 cells from apical to basal side measured after 30 to 120 mins by LC-MS analysis
Series [22] in a line: in vitro. The settings on record: dog, MDCK-MDR1. This is another data set of the same source.
Description: Apparent permeability in dog MDCK-MDR1 cells from basal to apical side measured after 30 to 120 mins by LC-MS analysis

pIC50, pKi: −log10 of the molar value. Converted amounts (≈) assume the structure as drawn.

T1 sequence (P23975 whole entry): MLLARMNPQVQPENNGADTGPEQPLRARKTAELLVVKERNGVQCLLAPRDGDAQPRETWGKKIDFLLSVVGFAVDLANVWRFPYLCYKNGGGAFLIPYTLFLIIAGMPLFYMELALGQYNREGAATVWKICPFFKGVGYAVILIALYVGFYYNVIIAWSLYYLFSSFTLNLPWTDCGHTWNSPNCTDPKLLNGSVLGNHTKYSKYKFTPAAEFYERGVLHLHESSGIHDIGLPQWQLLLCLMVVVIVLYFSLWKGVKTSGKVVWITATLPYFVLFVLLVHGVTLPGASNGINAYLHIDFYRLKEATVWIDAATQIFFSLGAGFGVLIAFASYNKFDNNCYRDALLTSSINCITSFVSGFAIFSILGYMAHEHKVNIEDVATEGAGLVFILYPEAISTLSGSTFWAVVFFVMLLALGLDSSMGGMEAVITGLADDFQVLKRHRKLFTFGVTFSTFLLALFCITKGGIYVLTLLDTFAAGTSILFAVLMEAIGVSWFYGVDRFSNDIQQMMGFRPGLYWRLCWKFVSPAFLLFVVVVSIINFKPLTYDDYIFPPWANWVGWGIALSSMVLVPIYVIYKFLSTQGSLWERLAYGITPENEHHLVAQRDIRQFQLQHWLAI

For orientation: pKi means the negative decadic logarithm of the Ki, by convention in mol/L. Read a high pKi as a small Ki. For orientation: solubility means the dissolved amount per volume that the medium holds. The pIC50 is −log10 of the IC50, conventionally taken in molar units. What is called inhibition is the change of the read-out against control, counted positive when it falls. As usually defined, the half-life is how long it takes for the measured level to halve. What is called Cmax is the highest concentration seen after dosing. For orientation: AUC means the area under the concentration-time curve, a measure of exposure. In general, CL/F refers to clearance divided by bioavailability, as obtained after extravascular dosing. In general, CLint scaled refers to a measure of how fast metabolising enzymes remove a compound, apart from limits set by blood flow. What is called Papp A→B is how fast a substance crosses the layer from the apical side. A higher Papp A→B goes with fast passage. As a reminder, the Papp B→A is how fast a substance crosses the layer from the basolateral side. For the compound `COc1ccc2c(c1)[C@@]13CCCC[C@@H]1[C@@H](C2)N(C)CC3`, the pKi in series [1] was less than 5.00; in series [2], 6.20; in series [3], 6.06; in series [4], 7.14. Moreover, the values for the solubility at 1.5 h, 100 µM in [5] and in series [6] were 94 µM (≈ 25.5 µg/mL) and 88 µM (≈ 23.9 µg/mL), respectively. Also, the pIC50 in series [7] was less than 5.00. For the same compound, the inhibition at 0.25 h, 10 µM at hERG (KCNH2) amounted to 0.1%. In addition, the half-life at 10 µM in series [8] worked out at 3.42 h. Moreover, the Cmax in [9] came to 9.7 ng/mL; in series [10] it was 214 ng/mL. The AUC at 24 h in series [11] was 21.3 ng·h/mL; in series [12] it was 389 ng·h/mL. The “Cp(f)” value in [13] worked out at 19.3%; in [14] it was 21.6%. Besides, the Kp uu at 20 µM in [15] was found to be 27.9. In addition, in [16], the Vd came to 589 L/kg. Moreover, the CL/F in [17] stood at 2990 mL/min/kg. Further, the half-life in series [18] turned out to be 2 h; in [19], 2.07 h. This compound also displayed a CLint scaled at 2 h, 10 µM in the series “in vitro [20]” of 6.09 mL/min/kg. In the series “in vitro [21]”, this compound came in with a Papp A→B of 1.48 ×10⁻⁶ cm/s. In addition, the Papp B→A in the series “in vitro [22]” was found to be 1.21 ×10⁻⁶ cm/s.

As to `[2H]C([2H])([2H])N1CC[C@@]23CCCC[C@@H]2[C@@H]1Cc1ccc(C(F)F)cc13`, the solubility at 1.5 h, 100 µM in series [5] is 94 µM (≈ 27.7 µg/mL); in [6], 70 µM (≈ 20.6 µg/mL). Also, the half-life at 10 µM in series [8] was 2.03 h. The Cmax was determined as 66 ng/mL in series [9] and 854 ng/mL in series [10]. Besides, the AUC at 24 h in series [11] worked out at 353 ng·h/mL; in [12] it was 4060 ng·h/mL. Further, the “Cp(f)” value was 28.8% in series [13] and 9% in series [14]. Also, the Kp uu at 20 µM in series [15] was 4.1. In series [16], this compound yielded a Vd of 31 L/kg. This compound also registered a CL/F in series [17] of 135 mL/min/kg. The half-life in [18] is 2.65 h; in [19], 1.62 h. Moreover, the CLint scaled at 2 h, 10 µM in the series “in vitro [20]” worked out at 10.2 mL/min/kg.
